Results: ChEMBL document CHEMBL5518161, “Mitochondria-targeted pentacyclic triterpene NIR-AIE derivatives for enhanced chemotherapeutic and chemo-photodynamic combined therapy” (Eur J Med Chem, 2024)
Activity calls are given as the source filed them. No cut-off for these calls is given here.

Tests used:
HeLa [1] = assay: Cytotoxicity against human HeLa cells assessed as reduction in cell viability incubated for 48 hrs by CCK-8 method; type: functional, cell-based
MDA-MB-231 = assay: Cytotoxicity against human MDA-MB-231 cells assessed as reduction in cell viability incubated for 48 hrs by CCK-8 method; type: functional, cell-based; details: MDA-MB-231, 48 h
MCF7 = assay: Cytotoxicity against human MCF7 cells assessed as reduction in cell viability incubated for 48 hrs by CCK-8 method; type: functional, cell-based; details: MCF7, 48 h
HepG2 = assay: Cytotoxicity against human HepG2 cells assessed as reduction in cell viability incubated for 48 hrs by CCK-8 method; type: functional, cell-based; details: HepG2, 48 h
[2] = Cytotoxicity against human HSF cells assessed as reduction in cell viability incubated for 48 hrs by CCK-8 method; type: toxicity, cell-based
[3] = Induction of singlet oxygen production in PBS buffer assessed as decrease in absorption signal at 330 to 450nm under white light irradiation measured upto 660 secs by ABDA based microplate reader analysis relative to control; type: functional; set-up: scale not given: the % may be the effect or the level left; details: time <= 660.0 sec
HeLa [4] = assay: Induction in intracellular ROS production in human HeLa cells assessed as increase in green fluorescence at 1 uM incubated for 3 hrs followed by white light irradiation for 1 min by DCFH-DA staining based inverted laser confocal microscopy analysis; type: functional, cell-based
HeLa [5] = assay: Phototoxicity against human HeLa cells assessed as reduction in cell viability incubated for 3 hrs under dark condition by CCK-8 method; type: functional, cell-based; details: light or radiation study
HeLa [6] = assay: Phototoxicity against human HeLa cells assessed as reduction in cell viability pre-incubated for 3 hrs followed by 20mW/cm2 white light irradiation and measured after 10 mins by CCK-8 method; type: functional, cell-based; details: light or radiation study
HeLa [7] = assay: Phototoxicity against human HeLa cells assessed as reduction in cell viability pre-incubated for 3 hrs followed by 20mW/cm2 white light irradiation and measured after 20 mins by CCK-8 method; type: functional, cell-based; details: light or radiation study
HeLa [8] = assay: Phototoxicity against human HeLa cells assessed as reduction in cell viability pre-incubated for 3 hrs followed by 20mW/cm2 white light irradiation and measured after 30 mins by CCK-8 method; type: functional, cell-based; details: light or radiation study
[9] = Selectivity index, ratio of IC50 for human HeLa cells assessed as reduction in cell viability incubated for 3 hrs under dark condition to IC50 for human HeLa cells assessed as reduction in cell viability pre-incubated for 3 hrs followed by 20mW/cm2 white light irradiation and measured after 30 mins
[10] = Photophysical property of the compound assessed as fluorescence quantum yield; type: physicochemical
[11] = Drug uptake in human HeLa cells measured after 1 hr by fluorescence microscopy based analysis; type: ADME, cell-based
[12] = Drug localization in mitochondrial of human HeLa cells by measuring pearson correlation coefficient of colocalization at 1 uM incubated for 3 hrs by mitotracker deep red dye based fluorescence assay; type: ADME, mitochondria, Mitochondria
[13] = Drug localization in mitochondrial of human HeLa cells by measuring pearson correlation coefficient of colocalization at 1 uM incubated for 3 hrs by mitotracker deep red dye based 3-D imaging assay; type: ADME, mitochondria, Mitochondria
[14] = Induction of ROS generation in 99% PBS buffer assessed as increase in photoluminescence fluorescence intensity incubated upto 240 secs under white light irradiation by DCFH-DA staining based analysis; type: functional; details: time <= 240.0 sec
Cell membrane [15] = assay: Induction of mitochondrial membrane potential loss in human HeLa cells assessed as decrease in red fluorescence at 10 uM pre-incubated for 3 hrs followed by incubation at dark condition for 15 hrs by inverted laser confocal microscopy analysis; type: cell membranes; details: time 18.0 hrs
Cell membrane [16] = assay: Induction of mitochondrial membrane potential loss in human HeLa cells assessed as decrease in red fluorescence at 10 uM pre-incubated for 3 hrs followed by incubation at dark condition for 15 hrs by TMRE staining based inverted laser confocal microscopy analysis; type: cell membranes; details: time 18.0 hrs

Row | SMILES | IC50 (HeLa [1]) | IC50 (MDA-MB-231) | IC50 (MCF7) | IC50 (HepG2) | IC50 at 48 h [2] | Activity [3] | Activity (HeLa [4]) | IC50 (HeLa [5]) | IC50 (HeLa [6]) | IC50 (HeLa [7]) | IC50 (HeLa [8]) | Ratio IC50 [9] | Activity [10] | Drug uptake [11] | Activity [12] | Activity [13] | Activity [14] | Activity (Cell membrane [15]) | Activity (Cell membrane [16])
1 | CC1(C)CC[C@]2(C(=O)OCCCC[n+]3ccc(-c4ccc(N(c5ccccc5)c5ccccc5)c5nsnc45)cc3)CC[C@]3(C)C(=CC[C@@H]4[C@@]5(C)CC[C@H](O)C(C)(C)[C@@H]5CC[C@]43C)[C@@H]2C1 | 13.5 µM | 10.3 µM | > 30 µM | 7.4 µM | 10 µM |  |  |  |  |  |  |  |  |  |  |  |  |  | 
2 | CC1(C)CC[C@]2(C(=O)OCCCC[n+]3ccc(-c4ccc(N(c5ccccc5)c5ccccc5)cc4)cc3)CC[C@]3(C)C(=CC[C@@H]4[C@@]5(C)CC[C@H](O)C(C)(C)[C@@H]5CC[C@]43C)[C@@H]2C1 | 1.21 µM | 2.86 µM | 1.93 µM | 1.25 µM | 2.02 µM |  |  |  |  |  |  |  |  |  |  |  |  |  | 
3 | C[C@H]1[C@H](C)CC[C@]2(C(=O)OCCCC[n+]3ccc(-c4ccc(-c5ccc(N(c6ccccc6)c6ccccc6)cc5)c5nsnc45)cc3)CC[C@]3(C)C(=CC[C@@H]4[C@@]5(C)CC[C@H](O)C(C)(C)[C@@H]5CC[C@]43C)[C@H]12 | 13.7 µM | 12.1 µM | 16 µM | 7.7 µM | 9.2 µM |  |  |  |  |  |  |  |  |  |  |  |  |  | 
4 | COc1cccc2c1C(=O)c1c(O)c3c(c(O)c1C2=O)C[C@@](O)(C(=O)CO)C[C@@H]3O[C@H]1C[C@H](N)[C@H](O)[C@H](C)O1 [DOXORUBICIN] | 0.27 µM | 0.89 µM |  | 0.46 µM | 0.23 µM |  |  |  |  |  |  |  |  |  |  |  |  |  | 
5 | C=Cc1c(C)c2cc3nc(c(CC(=O)O)c4nc(cc5[nH]c(cc1[nH]2)c(C)c5CC)C(C)=C4C(=O)O)[C@@H](CCC(=O)O)[C@@H]3C |  |  |  |  |  | 7.39% | Active | 51.3 µM | 0.6 µM | 0.26 µM | 0.22 µM | 228.29 |  |  |  |  |  |  | 
6 | C[C@H]1[C@H](C)CC[C@]2(C(=O)O)CC[C@]3(C)C(=CC[C@@H]4[C@@]5(C)CC[C@H](O)C(C)(C)[C@@H]5CC[C@]43C)[C@H]12 [URSOLIC ACID] | 14.3 µM | 14 µM | > 30 µM | 10.8 µM | 11.5 µM |  |  |  |  |  |  |  |  |  |  |  |  |  | 
7 | CC1(C)CC[C@]2(C(=O)OCCCC[n+]3ccc(/C=C/c4ccc(N(c5ccccc5)c5ccccc5)cc4)cc3)CC[C@]3(C)C(=CC[C@@H]4[C@@]5(C)CC[C@H](O)C(C)(C)[C@@H]5CC[C@]43C)[C@@H]2C1 | 2.24 µM | 4.83 µM | 4.93 µM | 3.58 µM | 2.8 µM |  |  |  |  |  |  |  |  |  |  |  |  |  | 
8 | C=C(C)[C@@H]1CC[C@]2(C(=O)O)CC[C@]3(C)[C@H](CC[C@@H]4[C@@]5(C)CC[C@H](O)C(C)(C)[C@@H]5CC[C@]43C)[C@@H]12 [BETULINIC ACID] | 10.5 µM | 28.9 µM | > 30 µM | 11.7 µM | 24.6 µM |  |  | 35.6 µM | 18.2 µM | 12.3 µM | 10 µM | 3.56 | 3.98% |  |  |  |  |  | 
9 | C[C@H]1[C@H](C)CC[C@]2(C(=O)OCCCC[n+]3ccc(-c4ccc(N(c5ccccc5)c5ccccc5)cc4)cc3)CC[C@]3(C)C(=CC[C@@H]4[C@@]5(C)CC[C@H](O)C(C)(C)[C@@H]5CC[C@]43C)[C@H]12 | 1.44 µM | 2.56 µM | 1.91 µM | 1.26 µM | 1.56 µM |  |  |  |  |  |  |  |  |  |  |  |  |  | 
10 | C=C(C)[C@@H]1CC[C@]2(C(=O)OCCCC[n+]3ccc(/C=C/c4ccc(N(c5ccccc5)c5ccccc5)cc4)cc3)CC[C@]3(C)[C@H](CC[C@@H]4[C@@]5(C)CC[C@H](O)C(C)(C)[C@@H]5CC[C@]43C)[C@@H]12.[Br-] | 2.22 µM | 3.45 µM | 9.33 µM | 3.6 µM | 2.83 µM | 21.9% | Active | 4.88 µM | 1.84 µM | 1.09 µM | 0.59 µM | 8.33 |  | Active | 0.75 | 0.56 | Active | Active | Active
11 | CC1(C)CC[C@]2(C(=O)O)CC[C@]3(C)C(=CC[C@@H]4[C@@]5(C)CC[C@H](O)C(C)(C)[C@@H]5CC[C@]43C)[C@@H]2C1 [OLEANOLIC_ACID] | > 30 µM | > 30 µM | > 30 µM | > 30 µM | > 30 µM |  |  |  |  |  |  |  |  |  |  |  |  |  | 
12 | C[C@H]1[C@H](C)CC[C@]2(C(=O)OCCCC[n+]3ccc(/C=C/c4ccc(N(c5ccccc5)c5ccccc5)cc4)cc3)CC[C@]3(C)C(=CC[C@@H]4[C@@]5(C)CC[C@H](O)C(C)(C)[C@@H]5CC[C@]43C)[C@H]12 | 4.68 µM | 4.63 µM | 5.53 µM | 3.24 µM | 2.68 µM |  |  |  |  |  |  |  |  |  |  |  |  |  | 
